Species: Rattus norvegicus
Experiment: DrugMatrix - Regimen: Daily Repeat
Format: toxicity, organism-based, Sprague-Dawley
Design: regimen Daily Repeat, gender Male, age 6-8 weeks
Details: in vivo, po, route oral GAVAGE, vehicle 100 % SALINE; for ABSOLUTE BASOPHIL / ABSOLUTE EOSINOPHIL / ABSOLUTE LYMPHOCYTE / ABSOLUTE MONOCYTE / ABSOLUTE SEGMENTED NEUTROPHIL / BASOPHIL / EOSINOPHIL / ERYTHROCYTE COUNT / HEMATOCRIT / HEMOGLOBIN / LEUKOCYTE COUNT / LYMPHOCYTE / MEAN CORPUSCULAR HEMOGLOBIN / MEAN CORPUSCULAR HEMOGLOBIN CONCENTRATION / MEAN CORPUSCULAR VOLUME / MONOCYTE / NEUTROPHIL / NUCLEATED RED BLOOD CELLS / PLATELET COUNT: tissue Blood; for ALANINE AMINOTRANSFERASE / ALBUMIN / ALKALINE PHOSPHATASE / ASPARTATE AMINOTRANSFERASE / BLOOD UREA NITROGEN / CARBON DIOXIDE / CHLORIDE / CHOLESTEROL / CREATINE PHOSPHOKINASE / CREATININE / GLUCOSE / LACTATE DEHYDROGENASE / LIPASE / PHOSPHORUS / POTASSIUM / SODIUM / TOTAL BILIRUBIN / TOTAL PROTEIN / URIC ACID: tissue Plasma
[1] = 46 mg/kg, 120 h, dose level Low, time 5 day
[2] = 360 mg/kg, 72 h, dose level High, time 3 day
[3] = 360 mg/kg, 120 h, dose level High, time 5 day

**Q.** Which results are given for `COc1ccc2cc(CC(=O)O)ccc2c1`?
**A.** ABSOLUTE BASOPHIL [1]: 0 CELLS/uL; ABSOLUTE EOSINOPHIL [1]: 93.33 CELLS/uL; ABSOLUTE LYMPHOCYTE [1]: 9837 CELLS/uL; ABSOLUTE MONOCYTE [1]: 271.67 CELLS/uL; ABSOLUTE SEGMENTED NEUTROPHIL [1]: 1398 CELLS/uL; BASOPHIL [1]: 0%; EOSINOPHIL [1]: 0.67%; ERYTHROCYTE COUNT [1]: 5.65 x10E6/uL; HEMATOCRIT [1]: 35.2%; HEMOGLOBIN [1]: 13.83 G/DL; LEUKOCYTE COUNT [1]: 11.6 x10E3/uL; LYMPHOCYTE [1]: 86%; MEAN CORPUSCULAR HEMOGLOBIN [1]: 24.5 pg; MEAN CORPUSCULAR HEMOGLOBIN CONCENTRATION [1]: 39.33 G/DL; MEAN CORPUSCULAR VOLUME [1]: 62.23 fL; MONOCYTE [1]: 2.33%; NEUTROPHIL [1]: 11%; NUCLEATED RED BLOOD CELLS [1]: 0 /100WBC; PLATELET COUNT [1]: 1138.33 x10E3/uL; ALANINE AMINOTRANSFERASE [1]: 39.67 u/L; ALBUMIN [1]: 3.93 G/DL; ALKALINE PHOSPHATASE [1]: 339 u/L; ASPARTATE AMINOTRANSFERASE [1]: 71 u/L; BLOOD UREA NITROGEN [1]: 16.67 mg/dL; CARBON DIOXIDE [1]: 37.33 mmol/L; CHLORIDE [1]: 100 MEQ/L; CHOLESTEROL [1]: 65.67 mg/dL; CREATINE PHOSPHOKINASE [1]: 168 u/L; CREATININE [1]: 0.25 mg/dL; GLUCOSE [1]: 144.33 mg/dL; LACTATE DEHYDROGENASE [1]: 125.67 u/L; LIPASE [1]: 9.33 u/L; PHOSPHORUS [1]: 9.93 mg/dL; POTASSIUM [1]: 6.48 MEQ/L; SODIUM [1]: 142.9 MEQ/L; TOTAL BILIRUBIN [1]: 0.2 mg/dL; TOTAL PROTEIN [1]: 5.57 G/DL; URIC ACID [1]: 1.23 mg/dL; ABSOLUTE BASOPHIL [2]: 0 CELLS/uL; ABSOLUTE EOSINOPHIL [2]: 13.33 CELLS/uL; ABSOLUTE LYMPHOCYTE [2]: 7596.67 CELLS/uL; ABSOLUTE MONOCYTE [2]: 249.33 CELLS/uL; ABSOLUTE SEGMENTED NEUTROPHIL [2]: 2774 CELLS/uL; BASOPHIL [2]: 0%; EOSINOPHIL [2]: 0.33%; ERYTHROCYTE COUNT [2]: 3.71 x10E6/uL; HEMATOCRIT [2]: 23.17%; HEMOGLOBIN [2]: 9.43 G/DL; LEUKOCYTE COUNT [2]: 10.63 x10E3/uL; LYMPHOCYTE [2]: 66.67%; MEAN CORPUSCULAR HEMOGLOBIN [2]: 25.93 pg; MEAN CORPUSCULAR HEMOGLOBIN CONCENTRATION [2]: 41.23 G/DL; MEAN CORPUSCULAR VOLUME [2]: 62.9 fL; MONOCYTE [2]: 1.67%; NEUTROPHIL [2]: 31.33%; NUCLEATED RED BLOOD CELLS [2]: 1.67 /100WBC; PLATELET COUNT [2]: 943 x10E3/uL; ALANINE AMINOTRANSFERASE [2]: 45.33 u/L; ALBUMIN [2]: 2.4 G/DL; ALKALINE PHOSPHATASE [2]: 253 u/L; ASPARTATE AMINOTRANSFERASE [2]: 212.33 u/L; BLOOD UREA NITROGEN [2]: 22.33 mg/dL; CARBON DIOXIDE [2]: 20.33 mmol/L; CHLORIDE [2]: 99.67 MEQ/L; CHOLESTEROL [2]: 66.67 mg/dL; CREATINE PHOSPHOKINASE [2]: 1447.67 u/L; CREATININE [2]: 0.17 mg/dL; GLUCOSE [2]: 135.67 mg/dL; LACTATE DEHYDROGENASE [2]: 735.67 u/L; LIPASE [2]: 8.67 u/L; PHOSPHORUS [2]: 17 mg/dL; POTASSIUM [2]: 8 MEQ/L; SODIUM [2]: 141 MEQ/L; TOTAL BILIRUBIN [2]: 0.17 mg/dL; TOTAL PROTEIN [2]: 5.13 G/DL; URIC ACID [2]: 3.87 mg/dL; ABSOLUTE BASOPHIL [3]: 0 CELLS/uL; ABSOLUTE EOSINOPHIL [3]: 0 CELLS/uL; ABSOLUTE LYMPHOCYTE [3]: 14145 CELLS/uL; ABSOLUTE MONOCYTE [3]: 225 CELLS/uL; ABSOLUTE SEGMENTED NEUTROPHIL [3]: 8130 CELLS/uL; BASOPHIL [3]: 0%; EOSINOPHIL [3]: 0%; ERYTHROCYTE COUNT [3]: 4.19 x10E6/uL; HEMATOCRIT [3]: 26.25%; HEMOGLOBIN [3]: 10.55 G/DL; LEUKOCYTE COUNT [3]: 22.5 x10E3/uL; LYMPHOCYTE [3]: 62%; MEAN CORPUSCULAR HEMOGLOBIN [3]: 25.2 pg; MEAN CORPUSCULAR HEMOGLOBIN CONCENTRATION [3]: 40.2 G/DL; MEAN CORPUSCULAR VOLUME [3]: 62.7 fL; MONOCYTE [3]: 1%; NEUTROPHIL [3]: 37%; NUCLEATED RED BLOOD CELLS [3]: 0 /100WBC; PLATELET COUNT [3]: 2123.5 x10E3/uL; ALANINE AMINOTRANSFERASE [3]: 16.5 u/L; ALBUMIN [3]: 2.7 G/DL; ALKALINE PHOSPHATASE [3]: 153.5 u/L; ASPARTATE AMINOTRANSFERASE [3]: 50 u/L; BLOOD UREA NITROGEN [3]: 14 mg/dL; CARBON DIOXIDE [3]: 28 mmol/L; CHLORIDE [3]: 103 MEQ/L; CHOLESTEROL [3]: 71.5 mg/dL; CREATINE PHOSPHOKINASE [3]: 441 u/L; CREATININE [3]: 0.14 mg/dL; GLUCOSE [3]: 156.5 mg/dL; LACTATE DEHYDROGENASE [3]: 371.5 u/L; LIPASE [3]: 8 u/L; PHOSPHORUS [3]: 10.3 mg/dL; POTASSIUM [3]: 5.81 MEQ/L; SODIUM [3]: 139.25 MEQ/L; TOTAL BILIRUBIN [3]: 0.1 mg/dL; TOTAL PROTEIN [3]: 4.85 G/DL; URIC ACID [3]: 2.15 mg/dL

Source: ChEMBL document CHEMBL3885881, “DrugMatrix”
